Structures are written as SMILES. The source made the active and inactive calls.

For assay [1], the system named is HEK293. In words: cells. Conditions: Homo sapiens.
The target in assay [2] is T1, Heat shock factor protein 1 (Mus musculus, UniProt P38532).
T1 sequence (P38532 whole entry): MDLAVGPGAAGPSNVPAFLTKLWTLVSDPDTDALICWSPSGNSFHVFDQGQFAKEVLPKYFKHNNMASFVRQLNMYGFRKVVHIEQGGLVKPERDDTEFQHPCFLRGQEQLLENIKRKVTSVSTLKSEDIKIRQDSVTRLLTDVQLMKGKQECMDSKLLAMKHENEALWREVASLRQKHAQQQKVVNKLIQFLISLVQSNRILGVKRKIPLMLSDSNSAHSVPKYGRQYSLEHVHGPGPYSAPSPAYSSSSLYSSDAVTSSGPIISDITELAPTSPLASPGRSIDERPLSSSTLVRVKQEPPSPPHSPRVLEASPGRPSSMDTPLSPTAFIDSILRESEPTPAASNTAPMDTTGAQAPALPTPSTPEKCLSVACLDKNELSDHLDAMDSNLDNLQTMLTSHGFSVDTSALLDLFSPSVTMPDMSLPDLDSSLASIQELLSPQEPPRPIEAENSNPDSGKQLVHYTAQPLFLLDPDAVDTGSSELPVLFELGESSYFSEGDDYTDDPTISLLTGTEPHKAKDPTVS
The assay is described as follows: decrease of HSF1-responsive luciferase luminescence – cell-based, NIH3T3, dose retest, confirmation (AID 2382).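 Note: NIH3T3 fibroblasts with HSF1-driven luciferase reporter stressed by proteasome inhibitor MG132; luminescence from HSF1-driven luciferase expression after 8 hours of MG132 stress.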 The format is functional.

Assay [3] in a line: Fluorescence-based cell-based high throughput dose response assay for inhibitors of the interaction of nucleotide-binding oligomerization domain containing 2 (NOD2) and the receptor-interacting serine-threonine kinase 2 (RIPK2). The format is functional. Conditions: Homo sapiens.
Assay [4] can be described thus: NIH3T3 cell viability loss – ATP luminescence, mouse fibroblasts, counter-screen, dose response (AID 2010).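 Note: cells exposed to compound for about 90 hours before reading.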 The format is functional, cell-based. A general note: The purpose of a counterscreen is to sort out artefacts and off-target activity.
In assay [5] the target is Estrogen receptor beta (Homo sapiens, UniProt Q92731).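 Note: recombinant ER-beta bound to coactivator SRC1 peptide in presence of estradiol agonist; inhibitors block coactivator peptide binding and lower the FRET signal.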
A short description of assay [6]: Trypanosoma cruzi growth suppression in host cells – NIH3T3 host cells, beta-gal luminescence, confirmation (AID 2044).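 Note: intracellular parasites grown in NIH/3T3 mouse fibroblasts as host cells; luminescent beta-galactosidase reporter signal from transgenic T. cruzi replicating inside host cells; inhibitors lower the luminescence signal.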 The assay is classed as functional, cell-based.
Assay [7] has as its system HEK293. The assay is described as follows: cells. The note with it: Homo sapiens. The source holds these as a separate data set.
Assay [8] has as its target Albumin (Bos taurus, UniProt P02769). The assay is described as follows: Counterscreen for inhibitors of T-cell receptor (TCR)-CD3 interaction: Fluorescence-based biochemical high throughput dose response assay to identify inhibitors of T-cell receptor (TCR)-CD3 interaction using a TAMRA-labeled BSA probe. The format is functional.
Assay [9] is described as follows: Counterscreen for AddAB inhibitors: absorbance-based bacterial cell-based high throughput dose response assay for inhibitors of bacterial viability. [Related pubchem assays (depositor defined):AID435030, AID449728, AID449731, AID488942, AID488955, AID488956]. The format is functional.
The target in assay [10] is T2, Exodeoxyribonuclease V (Escherichia coli (strain K12), UniProt P04993+P07648+P08394).
T2 sequence (P04993 whole entry): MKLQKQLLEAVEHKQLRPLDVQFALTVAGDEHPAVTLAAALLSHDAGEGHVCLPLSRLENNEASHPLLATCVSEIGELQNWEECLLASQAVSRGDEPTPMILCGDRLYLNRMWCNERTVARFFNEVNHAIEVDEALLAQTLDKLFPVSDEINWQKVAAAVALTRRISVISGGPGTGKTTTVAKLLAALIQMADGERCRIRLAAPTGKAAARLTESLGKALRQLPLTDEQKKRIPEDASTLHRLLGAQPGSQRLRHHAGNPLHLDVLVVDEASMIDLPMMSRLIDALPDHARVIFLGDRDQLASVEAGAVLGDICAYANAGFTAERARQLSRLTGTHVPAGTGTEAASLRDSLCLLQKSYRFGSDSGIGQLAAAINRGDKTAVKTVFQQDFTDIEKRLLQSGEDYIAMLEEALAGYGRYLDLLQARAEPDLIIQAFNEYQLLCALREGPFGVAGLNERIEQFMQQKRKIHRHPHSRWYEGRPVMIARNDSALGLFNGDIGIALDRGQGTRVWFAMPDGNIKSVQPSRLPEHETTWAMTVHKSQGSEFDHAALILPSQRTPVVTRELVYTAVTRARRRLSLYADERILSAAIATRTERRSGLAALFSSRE
T2 sequence (P07648 whole entry): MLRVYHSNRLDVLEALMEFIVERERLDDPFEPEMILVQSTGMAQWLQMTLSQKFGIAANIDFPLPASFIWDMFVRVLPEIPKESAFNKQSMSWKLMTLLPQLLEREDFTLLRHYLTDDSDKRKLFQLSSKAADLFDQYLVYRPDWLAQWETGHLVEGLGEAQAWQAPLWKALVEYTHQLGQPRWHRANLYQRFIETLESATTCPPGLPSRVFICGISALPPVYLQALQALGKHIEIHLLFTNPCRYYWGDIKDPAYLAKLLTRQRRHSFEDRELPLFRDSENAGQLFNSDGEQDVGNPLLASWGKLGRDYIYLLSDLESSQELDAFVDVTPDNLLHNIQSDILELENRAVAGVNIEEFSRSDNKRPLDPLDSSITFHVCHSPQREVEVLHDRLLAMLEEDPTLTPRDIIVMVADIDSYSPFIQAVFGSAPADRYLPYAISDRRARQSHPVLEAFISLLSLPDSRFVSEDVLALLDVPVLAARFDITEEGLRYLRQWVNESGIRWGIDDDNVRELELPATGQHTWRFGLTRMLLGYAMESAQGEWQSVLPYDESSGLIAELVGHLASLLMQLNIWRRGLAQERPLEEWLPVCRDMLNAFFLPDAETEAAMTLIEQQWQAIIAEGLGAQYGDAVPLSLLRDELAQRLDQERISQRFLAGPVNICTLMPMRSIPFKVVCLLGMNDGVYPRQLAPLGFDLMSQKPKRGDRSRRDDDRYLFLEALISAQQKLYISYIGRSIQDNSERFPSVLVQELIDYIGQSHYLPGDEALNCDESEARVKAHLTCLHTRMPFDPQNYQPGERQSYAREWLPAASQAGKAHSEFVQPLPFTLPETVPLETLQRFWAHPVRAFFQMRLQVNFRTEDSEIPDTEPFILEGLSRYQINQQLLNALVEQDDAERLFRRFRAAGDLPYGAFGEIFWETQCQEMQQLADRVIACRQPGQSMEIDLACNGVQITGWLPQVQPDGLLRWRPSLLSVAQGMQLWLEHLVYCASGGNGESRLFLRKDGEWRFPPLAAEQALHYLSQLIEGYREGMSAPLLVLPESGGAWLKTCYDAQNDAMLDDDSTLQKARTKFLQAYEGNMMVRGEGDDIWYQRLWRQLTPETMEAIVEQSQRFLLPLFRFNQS
T2 sequence (P08394 whole entry): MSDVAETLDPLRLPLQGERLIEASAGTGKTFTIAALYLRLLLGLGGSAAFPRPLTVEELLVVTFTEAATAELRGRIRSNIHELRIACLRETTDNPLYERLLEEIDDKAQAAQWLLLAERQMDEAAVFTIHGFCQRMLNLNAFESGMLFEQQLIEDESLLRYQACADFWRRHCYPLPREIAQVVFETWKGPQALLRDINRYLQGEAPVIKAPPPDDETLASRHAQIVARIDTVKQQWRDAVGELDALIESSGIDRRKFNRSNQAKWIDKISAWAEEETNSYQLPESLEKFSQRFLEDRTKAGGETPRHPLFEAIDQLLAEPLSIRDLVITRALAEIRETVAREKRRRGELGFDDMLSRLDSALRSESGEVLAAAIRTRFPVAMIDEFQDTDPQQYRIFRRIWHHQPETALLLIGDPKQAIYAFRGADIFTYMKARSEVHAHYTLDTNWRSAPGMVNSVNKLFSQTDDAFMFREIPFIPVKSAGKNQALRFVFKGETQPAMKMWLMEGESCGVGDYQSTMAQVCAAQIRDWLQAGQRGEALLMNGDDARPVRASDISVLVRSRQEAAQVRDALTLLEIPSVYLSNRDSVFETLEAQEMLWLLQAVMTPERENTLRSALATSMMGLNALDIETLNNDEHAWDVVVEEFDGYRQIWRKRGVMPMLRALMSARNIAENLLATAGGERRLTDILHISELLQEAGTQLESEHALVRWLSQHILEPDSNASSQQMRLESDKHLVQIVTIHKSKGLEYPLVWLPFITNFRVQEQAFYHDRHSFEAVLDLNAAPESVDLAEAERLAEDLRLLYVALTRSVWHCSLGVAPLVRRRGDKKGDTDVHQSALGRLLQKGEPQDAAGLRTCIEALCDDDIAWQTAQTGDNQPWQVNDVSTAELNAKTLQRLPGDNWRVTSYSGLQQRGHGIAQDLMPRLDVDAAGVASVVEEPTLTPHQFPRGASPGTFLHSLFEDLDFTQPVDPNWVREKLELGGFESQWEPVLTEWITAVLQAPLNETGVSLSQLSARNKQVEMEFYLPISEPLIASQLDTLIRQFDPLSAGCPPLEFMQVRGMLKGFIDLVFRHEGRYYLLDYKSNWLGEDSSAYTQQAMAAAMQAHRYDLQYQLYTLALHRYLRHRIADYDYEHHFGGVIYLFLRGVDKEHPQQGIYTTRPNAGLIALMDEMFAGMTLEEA
The assay is described as follows: RecBCD inhibition via phage-restricted bacterial growth – absorbance, V66 E. coli, mutant T4 phage, counter-screen for AddAB inhibitor project, dose response (AID 492957). The assay is classed as functional, cell-based, Escherichia coli str. K-12 substr. MG1655.

Assay [11] is described as follows: NIH-3T3 fibroblast cytotoxicity, dose response, cytotoxicity control, cell-based, fluorescence, Alamar Blue, secondary assay (AID 2327).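 Note: NIH-3T3 mouse fibroblasts cultured with fluconazole at 8 µg/mL.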 The assay is classed as functional. For orientation: Resazurin is reduced to fluorescent resorufin, in cell work by metabolically active cells.
Assay [12] can be described thus: MIN6 cell viability loss – mouse insulinoma, cytotoxicity control, dose response (AID 2122).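 Note: confirmatory high-throughput counterscreen run to flag cytotoxic compounds.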 The assay is classed as functional.
A short description of assay [13]: decrease of insulin promoter-GFP reporter – imaging, high-content screening, mouse beta cells (AID 1628). The format is functional. The note with it: MIN6.
Assay [14] is described as follows: Luminescence Cell-Based Dose Response HTS to Identify Inhibitors of 5'UTR Stem-Loop Driven Prion Protein mRNA Translation in H4 Neuroglioblastoma Cells. [Related pubchem assays: 1827 (Project Summary), 1813 (Primary HTS)]. The assay is classed as functional.
The nature of assay [15]: luciferase reporter signal suppression in cells – H4 neuroglioma cells, luminescence, dose response (AID 1990). The assay is classed as functional, cell-based.
Assay [16] is described as follows: alpha-synuclein stem-loop luciferase translation blockers – H4 neuroglioma cells, luminescence, confirmation (AID 1988). The format is functional, cell-based.
Assay [17] is described as follows: cells. The format is functional, cell-based.
Assay [18] in a line: cells. The assay is classed as functional, cell-based. This is another data set of the same source.
The nature of assay [19]: Luminescence Cell-Based Dose Retest to Confirm Inhibitors of Cancer Stem Cells. [Related pubchem assays (depositor defined):AID2717, AID2721]. The format is functional. Conditions: Homo sapiens.
Assay [20] has as its system INS1. The assay is described as follows: INS-1E survival protection against cytokine death – cell-based, luminescence, retest, dose response (AID 449756).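 Note: cell death triggered by IL-1 beta plus TNF-alpha plus IFN-gamma mixture; protective hits raise ATP signal compared with cytokine alone wells.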 The format is functional. The note with it: Rattus norvegicus.

Chain of Albumin (P02769 whole entry): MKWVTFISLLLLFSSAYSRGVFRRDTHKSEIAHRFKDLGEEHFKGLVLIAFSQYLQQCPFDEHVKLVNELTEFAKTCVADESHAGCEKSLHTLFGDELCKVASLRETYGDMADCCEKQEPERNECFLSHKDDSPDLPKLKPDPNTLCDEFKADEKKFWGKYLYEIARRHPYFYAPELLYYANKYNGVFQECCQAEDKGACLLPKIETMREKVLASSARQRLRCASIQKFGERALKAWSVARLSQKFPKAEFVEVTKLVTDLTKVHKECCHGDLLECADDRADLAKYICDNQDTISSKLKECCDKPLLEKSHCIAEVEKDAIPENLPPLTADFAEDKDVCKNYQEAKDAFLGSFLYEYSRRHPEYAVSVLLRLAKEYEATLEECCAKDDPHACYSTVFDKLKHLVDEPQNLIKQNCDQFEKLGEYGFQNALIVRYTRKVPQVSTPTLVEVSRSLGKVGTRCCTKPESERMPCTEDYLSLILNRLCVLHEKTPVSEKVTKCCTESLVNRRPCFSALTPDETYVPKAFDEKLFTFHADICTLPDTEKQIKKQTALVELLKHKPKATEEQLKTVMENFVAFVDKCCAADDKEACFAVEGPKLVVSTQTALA
Chain of Estrogen receptor beta (Q92731 whole entry): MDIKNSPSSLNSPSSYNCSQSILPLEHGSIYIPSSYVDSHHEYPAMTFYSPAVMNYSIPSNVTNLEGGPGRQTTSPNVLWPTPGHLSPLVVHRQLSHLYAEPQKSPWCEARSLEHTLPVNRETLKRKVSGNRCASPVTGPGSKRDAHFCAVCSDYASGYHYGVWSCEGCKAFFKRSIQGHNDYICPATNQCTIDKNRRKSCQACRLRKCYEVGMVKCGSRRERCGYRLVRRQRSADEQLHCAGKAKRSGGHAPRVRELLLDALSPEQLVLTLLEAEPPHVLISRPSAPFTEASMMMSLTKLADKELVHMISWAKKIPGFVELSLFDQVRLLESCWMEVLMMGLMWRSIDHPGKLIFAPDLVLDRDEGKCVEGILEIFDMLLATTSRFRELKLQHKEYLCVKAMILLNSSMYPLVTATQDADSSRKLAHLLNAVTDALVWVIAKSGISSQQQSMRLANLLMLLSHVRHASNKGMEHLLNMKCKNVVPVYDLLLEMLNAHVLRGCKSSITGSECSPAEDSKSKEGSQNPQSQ

As for `CCc1ccc(C(=O)Cn2ncc(Cl)c(Cl)c2=O)cc1`, the EC50 in assay [1] is > 59.6 µM (inactive); in [2], 5.77 µM (active); in assay [4], 4.03 µM (active); in assay [6], 2.19 µM (active); in [7], > 59.6 µM (inactive). The IC50 in assay [3] was 3.38 µM (active); in assay [5], > 50 µM (not active).

On to `COc1ccccc1NC(=O)NNC(=O)c1cc2ccccc2cc1O`, for which the IC50 was > 94.1 µM (inactive) in assay [8], > 119 µM (inactive) in assay [9] and > 119 µM (inactive) in assay [10]. Also, the EC50 in [11] was > 160 µM (inactive).

Regarding `CCN(CC)C1=CC(=[N+]2CCCC2)CC(C)(C)C1`, the IC50 in [12] and in [13] was < 0.25 µM (active) throughout. Also, the results for the EC50 in assay [4] and in assay [6] were > 60 µM (inconclusive) and 0.732 µM (active), respectively.

On to `CCN1CCN(S(=O)(=O)c2cc(OCC(=O)NC3CCCCC3)c(C)cc2Cl)CC1`, for which the IC50 in assay [12] was 2.03 µM (active); in [13], 2.29 µM (active).

With `CC1(c2ccc([N+](=O)[O-])cc2)CC(C)(C)N(C(=O)c2ccccc2)c2ccccc21` (stereo not given), the IC50 in assay [12] is 7.16 µM (active); in assay [13] it was 7.17 µM (active).

As to `C/C=C/CSc1nc2c(c(=O)[nH]c(=O)n2C)n1Cc1ccc(C)cc1`, the EC50 in assay [1] was > 59.6 µM (inactive); in [14], > 120 µM (not active); in assay [15], 21.2 µM (active); in assay [16], 21.4 µM (active); in assay [7], > 59.6 µM (inactive).

As to `Cc1cc([N+](=O)[O-])nn1Cc1ccc(C(=O)N/N=C/c2ccc(O)cc2O)cc1`, the EC50 was 9.79 µM (active) in assay [17] and > 350 µM (not active) in assay [18]. Moreover, the IC50 in [9] and in assay [10] was > 119 µM (inactive) throughout. The AC50 was 1.71 µM (active) in assay [19] and 1.37 µM (active) in assay [20].

What is called EC50 is the concentration giving half of the maximal effect. The term IC50 denotes the midpoint of a concentration-inhibition curve. By AC50 is commonly meant the concentration giving half of the maximal activity seen.

For the origin of these results see ChEMBL document CHEMBL1201862, “PubChem BioAssay data set” (2004).
